Laboratory results: patent US7776826B2, “Method for fostering bone formation and preservation” (Unigene Laboratories, Inc., priority 2004, dated 2010)

Experiments:
[1] = system: osteoporotic female Sprague-Dawley rats; assay: Lumbar vertebral bone mineral density and bone formation rate in ovariectomized osteoporotic rats, without mechanical induction; type: in vivo, rat; conditions: OVX rats, 4 weeks subcutaneous treatment, no mechanical induction
Description: FIG. 15 is a bar graph comparing the Lumbar Vertebral Bone Mineral Density obtained in osteoporotic female Sprague-Dawley rats wherein the osteoporosis was induced via an ovariectomy. The rats were treated with (1) PTH[1-31]-NH2; (2) PTH[1-34]-NH2; and PTH[1-34]-OH; and
FIG. 16 is a bar graph comparing the Lumbar Vertebral Bone Formation Rate obtained in osteoporotic female Sprague-Dawley rats wherein the osteoporosis was induced via an ovariectomy. The rats were treated with (1) PTH[1-31]-NH2; (2) PTH[1-34]-NH2; and PTH[1-34]-OH.
A series of experiments was performed comparing (1) lumbar vertebral bone mineral density, and (2) lumbar vertebral bone formation rate achieved with PTH[1-31]-NH2 and PTH[1-34]-OH compared to the preferred PTH[1-34]-NH2 analog discussed above in the absence of the mechanical induction step of the invention. The study involved a four-week treatment of female Sprague-Dawley rats at 10 months of age, and 6 months post-ovariectomy (“OVX”), which induces osteoporosis, with one of the three above-noted parathyroid hormone truncates. The rats were randomized into the following groups: sham OVX, OVX+ vehicle, OVX+PTH [1-31]-NH2 or PTH [1-34]-NH2 (obtained from Unigene Laboratories, Inc.) at 2.5, 10 or 40 μg/kg/day subcutaneous, or PTH[1-34]-OH (obtained from Bachem) at 10 μg/kg/day subcutaneous. After 4 weeks of treatment, the right femur of each animal was analyzed by DEXA and bone histomorphometry. FIG. 15 is a bar graph providing a comparison of the lumbar vertebral bone mineral density achieved with PTH[1-31]-NH2, PTH[1-34]-NH2 and PTH[1-34]-OH. FIG. 16 is a bar graph comparing the lumbar vertebral formation rates achieved with these same truncates. […] Because of the similarity of anabolic action among the above-discussed parathyroid hormones, it is therefore reasonable to expect that all known PTH analogs will advantageously function in the desired manner in the method of the present invention.

Male Sprague-Dawley rats = assay: pQCT analysis of left (ablated) and right (non-ablated) femoral shafts, Groups A-J; type: in vivo, rat; conditions: for Left femoral shaft Total density mean / Left femoral shaft Trabecular density mean: ablated femur; for new trabecular bone formation in left femoral shaft, in words: bmx, pQCT; for Right femoral shaft Total density mean / Right femoral shaft Trabecular density mean: non-ablated femur (bmx on contralateral left femur)
From the text: FIG. 4 (a-d) are graphical representations of the results of Peripheral Quantitative Computerized Tomography (PQCT) analyses of, respectively, the left (ablated) and right (non-ablated) femoral shafts of the rats which are the subject of FIG. 3 above. FIGS. 4(a) and 4(b) illustrate the trabecular bone density observed in respectively, the left and right femoral shafts of these rats, whereas, FIGS. 4(c) and 4(d) illustrate the total bone density of the respective shafts. The meanings of the abbreviations used in FIGS. 4a-4d are identical to those described above with regard to FIG. 3 (a-e);
All of the data presented above are based on analyses carried out solely of the distal epiphysis portion of the rat femurs. Subsequently, however, to avoid the above-described drawbacks associated with reading the bone density at the level of the epiphysis, the inventors undertook to further analyze the remaining portions of the animals' femur bones and particularly, areas along the length of the cortical shaft. […] In the discussion which follows, directed to the results of these additional analyses, the reader is reminded that the bone marrow ablation (bmx) technique was practiced, in all cases, only on the left femur of the test animals. That is to say, there was no ablation of the marrow portion in the right femur. Thus, in the right femur views discussed below, wherein the illustration or graph relating to the right femur is labeled with the abbreviation “bmx”, etc. to describe the modality of treatment which the rat was subjected to, one should understand such labeling to mean that the view is of a right femur, or is of a graph which presents a value obtained pursuant to the analysis of such right femur, wherein the animal's corresponding left femur underwent a bone marrow ablation treatment in the manner described herein.
FIG. 4 (a-d) graphically illustrate the formation of both trabecular bone and, to some extent, total bone, within the left femoral shaft in rats from the Groups described in Tables 1 and/or 2 above, wherein the left femur was subjected to a bmx (bone marrow ablation) treatment coupled with a concurrent and/or subsequent administration of one or more bone anabolic agents, including parathyroid hormone (PTH[1-34]-NH2) and one or more anti-resorptive agents such as salmon calcitonin. […] The effects of these last two combinations protects the significant initial bone formation induced by bmx, but not to the same extent as parathyroid hormone (PTH[1-34]-NH2) alone.
FIGS. 4(b) and 4(d) are provided to illustrate the results obtained with the same animals' corresponding right femoral shafts, i.e, in which bone marrow ablation (bmx) was not performed. Little or no new bone formation was observed, i.e, the density remained substantially constant, since the only treatment received by the right femurs was due to the systemic administration of the bone anabolic agent. The agent(s) was administered for too short a period to have, by itself, any real positive effect on the bone density. In fact, the total bone density curve for the right femoral shaft presents a substantially straight line, which is attributable to the fact that the total density measurement includes a measurement of cortical bone. Furthermore, since the anabolic agent was not administered for a period sufficient to increase cortical bone density, the total density remained unchanged.
The table additionally includes the standard deviations (“sd”) for the values obtained for each analysis, which standard deviations are also indicated in FIG. 4 (a-d).
The results set forth in FIGS. 1, 2, 4, 5, 11 and 12 and the corresponding Tables, Nos. 1, 2, 3, 4, 5 and 6 discussed above were obtained with the use of a method for mechanically inducing increased osteoblast activity as illustrated in FIGS. 14A-14D. […]

Substance | bone anabolic activity (lumbar vertebral bone mineral density and bone formation rate) [1] | Left femoral shaft Total density mean (Male Sprague-Dawley rats; Day 0) [mg/mL] | Left femoral shaft Trabecular density mean (Male Sprague-Dawley rats; Day 0) [mg/mL] | Left femoral shaft Total density mean (Male Sprague-Dawley rats; Day 7) [mg/mL] | Left femoral shaft Trabecular density mean (Male Sprague-Dawley rats; Day 7) [mg/mL] | Left femoral shaft Total density mean (Male Sprague-Dawley rats; Day 14) [mg/mL] | Left femoral shaft Trabecular density mean (Male Sprague-Dawley rats; Day 14) [mg/mL] | Left femoral shaft Total density mean (Male Sprague-Dawley rats; Day 21) [mg/mL] | Left femoral shaft Trabecular density mean (Male Sprague-Dawley rats; Day 21) [mg/mL] | new trabecular bone formation in left femoral shaft, in words (Male Sprague-Dawley rats) | Right femoral shaft Total density mean (Male Sprague-Dawley rats; Day 0) [mg/mL] | Right femoral shaft Trabecular density mean (Male Sprague-Dawley rats; Day 0) [mg/mL] | Right femoral shaft Total density mean (Male Sprague-Dawley rats; Day 7) [mg/mL] | Right femoral shaft Trabecular density mean (Male Sprague-Dawley rats; Day 7) [mg/mL] | Right femoral shaft Total density mean (Male Sprague-Dawley rats; Day 14) [mg/mL] | Right femoral shaft Trabecular density mean (Male Sprague-Dawley rats; Day 14) [mg/mL] | Right femoral shaft Total density mean (Male Sprague-Dawley rats; Day 21) [mg/mL] | Right femoral shaft Trabecular density mean (Male Sprague-Dawley rats; Day 21) [mg/mL]
PTH[1-34]-NH2 | substantially equivalent | 726.1 | 21.4 | 867.5 | 243.8 | 968.7 | 465.4 | 1046.7 | 511.2 | greatest formation of new trabecular bone | 787.2 | 12.9 | 848.2 | 1.5 | 871 | 13.7 | 864.8 | 10.7
salmon calcitonin [CT, reference compound] |  | 726.1 | 21.4 | 833.6 | 232.2 | 876.2 | 257 | 833.2 | 163.5 | Beneficial results | 787.2 | 12.9 | 797.4 | 1.2 | 821.9 | 10.9 | 821.3 | 10.8
